Measurements published in the supplement of paper PMC10307832.

Tests used:
Assay in all cases: relative viability (nuclei count vs DMSO), 5 days (fraction); higher = more cells survive
[1] = compound: CC[C@H](Nc1ncnc2[nH]cnc12)c1nc2cccc(F)c2c(=O)n1-c1ccccc1 [Idelalisib] + O=C(c1cc(Cc2n[nH]c(=O)c3ccccc23)ccc1F)N1CCN(C(=O)C2CC2)CC1 [Olaparib] (partner 8 µM)
How it was run: (§1)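 Cells from lung cancer lines were seeded into 1536-well plates and, one day later, dosed by pin tool. Treatments were either a single drug or a fixed dose of an anchor drug with five library-drug doses (not always all listed) in √10 steps. After 5 days, nuclei were stained in a one-step fixation (final 0.05% Triton X-100, 1% formaldehyde, 1 ug/ml Hoechst) and counted on 4× images, and relative viability is the treated-to-vehicle nuclei ratio, as the median of duplicate plates.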

[2] = compound: Nc1nc2[nH]cc(CCc3ccc(C(=O)N[C@@H](CCC(=O)O)C(=O)O)cc3)c2c(=O)[nH]1 [Pemetrexed] + N=C(N)NC(=N)NCCc1ccccc1 [Phenformin] (partner 250 µM)
How it was run: as §1

[3] = compound: CC[C@H](Nc1ncnc2[nH]cnc12)c1nc2cccc(F)c2c(=O)n1-c1ccccc1 [Idelalisib] + CC(=O)Nc1cccc(-n2c(=O)n(C3CC3)c(=O)c3c(Nc4ccc(I)cc4F)n(C)c(=O)c(C)c32)c1 [Trametinib] (partner 0.02 µM)
How it was run: as §1

[4] = compound: Nc1nc2[nH]cc(CCc3ccc(C(=O)N[C@@H](CCC(=O)O)C(=O)O)cc3)c2c(=O)[nH]1 [Pemetrexed] + COc1cc2c(Oc3ccc(NC(=O)C4(C(=O)Nc5ccc(F)cc5)CC4)cc3F)ccnc2cc1OCCCN1CCOCC1 [Foretinib] (partner 0.25 µM)
How it was run: as §1

Cell Line	relative viability ([1]; first compound 0.04 µM)	relative viability ([1]; first compound 0.1265 µM)	relative viability ([1]; first compound 0.4 µM)	relative viability ([1]; first compound 1.265 µM)	relative viability ([1]; first compound 4 µM)	relative viability ([2]; first compound 0.002 µM)	relative viability ([2]; first compound 0.006325 µM)	relative viability ([2]; first compound 0.02 µM)	relative viability ([2]; first compound 0.06325 µM)	relative viability ([2]; first compound 0.2 µM)	relative viability ([3]; first compound 0.04 µM)	relative viability ([3]; first compound 0.1265 µM)	relative viability ([3]; first compound 0.4 µM)	relative viability ([3]; first compound 1.265 µM)	relative viability ([3]; first compound 4 µM)	relative viability ([4]; first compound 0.006325 µM)	relative viability ([4]; first compound 0.02 µM)	relative viability ([4]; first compound 0.06325 µM)	relative viability ([4]; first compound 0.2 µM)	relative viability ([4]; first compound 0.002 µM)
NCI-H2023	0.463	0.495	0.542	0.436	0.472	0.343	0.397	0.473	0.354	0.203	0.487	0.533	0.49	0.537	0.37	0.739	0.885	0.888	0.319	
Calu-6	0.669	0.61	0.533	0.657	0.53											0.877	0.95	0.888	0.845	0.821
SW 900	0.904	0.842	0.729	0.93	0.665	0.759	0.578	0.763	0.548	0.477	0.854	0.861	0.856	0.667	0.734	0.77	0.874	0.688	0.588	0.908
HOP-62	0.306	0.538	0.442	0.387	0.498	0.567	0.675	0.659	0.716	0.611	0.345	0.354	0.292	0.362	0.247	1.02	1.2	1.09	1.07	0.892
H3255	0.567	0.555	0.534	0.573	0.513	0.349	0.355	0.414	0.418	0.414	0.602	0.57	0.471	0.577	0.527	0.924	1.07	0.943	0.741	0.608
NCI-H1734	0.578	0.578	0.561	0.607	0.704	0.459	0.343	0.458	0.373	0.386	0.696	0.697	0.546	0.69	0.556	0.77	0.976	0.794	0.532	0.871
SK-MES-1	0.736	0.711	0.679	0.636	0.448	0.647	0.638	0.705	0.642	0.614	0.497	0.482	0.426	0.477	0.353	0.83	1.04	0.907	0.868	0.883
NCI-H1792	0.244	0.369	0.267	0.409	0.298	0.311	0.368	0.297	0.252	0.272	0.487	0.522	0.271	0.56	0.267					
EKVX	0.756	0.915	0.755	0.884	0.74	0.246	0.284	0.26	0.254	0.206	0.332	0.406	0.352	0.334	0.278	0.795	1.05	0.908	0.491	0.733
EPLC-272H	1.01	0.916	0.686	0.637	0.619	0.242	0.315	0.333	0.292	0.267	0.311	0.291	0.254	0.257	0.216	0.609	0.774	0.678	0.573	0.648
LK-2	0.874	0.631		0.983	0.609	0.51	0.475	0.883	0.376	0.267	0.87	0.651	0.503	0.588	0.704	0.984	1.25	1.2	1.11	1.09
CAL-12T	0.767	0.823	0.796	0.852	0.75	0.502	0.477	0.612	0.58	0.608	0.422	0.28	0.276	0.363	0.339	1.07	1.24	1.17	1.04	1.04
NCI-H322M	0.652	0.813	0.781	0.747	0.77	0.861	0.747	0.799	0.741	0.613	0.58	0.57	0.479	0.505	0.537	0.864	0.973	0.917	0.834	0.961
NCI-H1650	0.793	0.865	0.768	0.789	0.654	0.415	0.39	0.408	0.309	0.231	0.524	0.46	0.618	0.51	0.575	0.988	1.17	0.888	0.402	0.985
NCI-H2342	0.442	0.481	0.457	0.421	0.407	0.501	0.6	0.526	0.54	0.618	0.804	0.851	0.779	0.753	0.658	1.08	0.94	1.05	0.915	0.997
SW 1573	0.465	0.426	0.364	0.521	0.431	0.401	0.348	0.447	0.353	0.388	0.688	0.468	0.477	0.506	0.383	0.808	0.951	0.979	0.855	0.909
NCI-H2405	0.893	0.885	0.76	0.868	0.836	0.37	0.362	0.423	0.432	0.392	0.672	0.656	0.423	0.622	0.515	1.03	1.09	1.03	1.08	1.06
LCLC-103H	0.728	0.791	0.721	0.757	0.705	0.316	0.333	0.364	0.351	0.3	0.659	0.607	0.664	0.63	0.64	0.666	0.833	0.725	0.802	0.719
HCC-44	1.05	0.998	0.962	1.04	1.05	0.129	0.23	0.187	0.224	0.207	1.07	1.04	1.08	1.06	0.941					

Cell Line	relative viability ([1]; first compound 0.04 µM)	relative viability ([1]; first compound 0.1265 µM)	relative viability ([1]; first compound 0.4 µM)	relative viability ([1]; first compound 1.265 µM)	relative viability ([1]; first compound 4 µM)	relative viability ([2]; first compound 0.002 µM)	relative viability ([2]; first compound 0.006325 µM)	relative viability ([2]; first compound 0.02 µM)	relative viability ([2]; first compound 0.06325 µM)	relative viability ([2]; first compound 0.2 µM)	relative viability ([3]; first compound 0.04 µM)	relative viability ([3]; first compound 0.1265 µM)	relative viability ([3]; first compound 0.4 µM)	relative viability ([3]; first compound 1.265 µM)	relative viability ([3]; first compound 4 µM)	relative viability ([4]; first compound 0.006325 µM)	relative viability ([4]; first compound 0.02 µM)	relative viability ([4]; first compound 0.06325 µM)	relative viability ([4]; first compound 0.2 µM)	relative viability ([4]; first compound 0.002 µM)
RERF-LC-KJ	0.873	0.941	0.864	0.892	0.814	0.435	0.439	0.43	0.411	0.349	0.84	0.912	0.804	0.936	0.66	0.84	0.866	0.857	0.749	0.84
NCI-H1975	0.787	0.835	0.741	0.778	0.615	0.331	0.39	0.413	0.32	0.237	0.328	0.382	0.37	0.375	0.288	0.914	1.02	0.825	0.401	0.899
IA-LM	0.711	0.952	0.747	1.02	0.93											1.1	1.05	1.14	0.829	1.05
LCLC-97TM1	0.328	0.349	0.324	0.347	0.378	0.432	0.392	0.466	0.44	0.396	0.194	0.21	0.216	0.228	0.163	0.81	0.886	0.872	0.886	1.01
NCI-H520	0.34	0.364	0.276	0.302	0.269	0.567	0.756	0.756	0.65	0.501	0.793	0.566	0.479	0.628	0.613	0.749	0.848	0.693	0.738	0.787
A-427	0.853	0.788	0.712	0.785	0.711	0.298	0.42	0.377	0.308	0.355	0.843	0.812	0.667	0.78	0.7	1.02	1.08	0.961	0.929	0.994
ABC-1	0.947	0.913	0.78	0.97	0.68	0.283	0.24	0.26	0.283	0.249						0.927	1.01	0.992	1.08	1.26
NCI-H460	0.491	0.466	0.461	0.454	0.472	0.432	0.452	0.56	0.247	0.0552	0.218	0.194	0.139	0.131	0.113	0.942	1.1	0.64	0.0776	0.989
NCI-H1395	0.456	0.455	0.445	0.43	0.41	0.4	0.472	0.521	0.411	0.447	1.12	1	0.965	1.07	0.844	0.965	1.05	0.962	0.937	0.912
EBC-1	0.721	0.777	0.763	0.65	0.588											0.112	0.107	0.0993	0.0915	0.117
NCI-H23	0.286	0.289	0.336	0.29	0.307	0.747	0.758	0.809	0.804	0.828	0.462	0.38	0.281	0.399	0.312	0.943	1.22	0.618	0.989	1.03
A549	0.238	0.28	0.236	0.266	0.361	0.161	0.155	0.169	0.161	0.14						0.902	1.08	1.02	0.925	0.935
NCI-H1563						0.745	0.649	0.67	0.651	0.64						0.87	1.01	0.909	0.919	0.822
NCI-H1703	0.459	0.436	0.365	0.388	0.237											0.283	0.415	0.345	0.369	0.304
NCI-H1299	1.01	0.982	0.941	1.02	1.06											1.15	1.12	1.09	0.595	1.08
NCI-H522	0.684	0.526	0.606	0.678	0.72	0.739	0.593	0.77	0.692	0.583	0.76	0.646	0.668	0.727	0.731					
NCI-H1648		1.16	0.712	1.11	0.657						0.418	0.482	0.423	0.433	0.397					
NCI-H1623						0.575	0.588	0.564	0.627	0.598						0.831	0.861	0.848	0.769	0.794
